According to patent publication US20250034136A1 (Nimbus Wadjet, Inc., priority 2023, published 2025):
Read-outs that look alike come from different tables or passages of the source.

What was measured:
[1] = test system: p21 induction in HCT116 cells; assay: p21 induction in HCT116 cells; assay type: cell-based; conditions: HCT116 cells, 24 h compound incubation, read-out: P21_EC50
Protocol: The colon carcinoma cell line HCT116 was obtained from ATCC and cultured in growth medium consisting of Mccoy's 5A Medium (Gibco 16600108) supplemented with 10% FBS (Transgene FS201-02) and 100 units/mL penicillin-streptomycin (Gibco 15140122) and maintained at 37° C. under 5% CO2. On the day of seeding, 2,000 cells in 30 μL of culture media were plated per well to Poly-D-Lysine 384 Well Black Clear Plates (Biocoat 356663) and incubated overnight at 37° C. under 5% CO2. The following day, compounds were serially diluted in DMSO for a total of 11 test concentrations. […] Next, 150 nL of diluted compound was added in duplicate to the assay plate, using an Echo 655 (Labcyte). The plate was centrifuged at 500 RPM for 1 min and then incubated at 37° C. under 5% CO2 for 24 h. After 24 h, medium was removed, and cells were fixed by adding 40 μL of 4% paraformaldehyde solution to each well and incubated for 20 min at room temperature. The plate was then washed 4 times with 100 μL per well of wash buffer (PBS with 0.1% Tween-20) using a microplate washer. Next, 30 μL of ice-cold methanol was added to each well and the plate was incubated at −20° C. for 10 min. The plate was washed 4 times with 100 μL per well of wash buffer by a microplate washer, then 30 μL per well of blocking buffer (Intercept PBS blocking buffer (LI-COR 927-70001) with 0.05% Tween-20) was added and the plate was incubated at room temperature with shaking for 2 h. Next, to each test well, 20 μL of primary antibody solution (p21 Waf1/CIP (12D1) RabbitmAb (Cell Signaling Technologies 2947) diluted 1:1000 and GAPDH (D4C6R) Mouse mAb (Cell Signaling Technologies 97166) diluted 1:2000 in blocking buffer) was added and the plate was placed at 4° C., overnight. The following day, the plate was washed 5 times with 100 μL per well of wash buffer using a microplate washer for 5 min. 20 μL per well of secondary antibody (IRDye 680CW Goat anti-Mouse IgG (H+L) (LI-COR 926-68070) diluted 1: 2000 in Blocking Buffer and IRDye 800CW Goat anti-Rabbit IgG (H+L) (LI-COR 926-32211) diluted 1: 2000 in Blocking Buffer) was then added and the plate was stored for 2 h in the dark at room temperature with shaking. The plate was then washed 4 times with 100 μL per well of wash buffer again using a microplate washer. Finally, the p21 signal and the GAPDH signal were quantified using a LI-COR Odyssey CLx Imager machine reading at 800 nm and 700 nm, respectively. Each plate contained DMSO control (low control) and an internal reference WRN inhibitor (high control) respectively. […] EC50 values for each compound were generated after non-linear regression curve fitting using commercially available software.

[2] = biological target: WRN (BV08), human Werner helicase (Uniprot Q14191, amino acids 517-1235 with L1074F point mutation) (Homo sapiens (Human), UniProt Q14191, L1074F); assay: WRN (BV08) ADP-Glo assay; assay type: biochemical; conditions: class symbols A-E, read-out: ADP-Glo_hWRN_IC50
Protocol: Bovine skin gelatin (BSG), dimethyl sulfoxide (DMSO), Pluronic F-127 and tris(2-carboxyethyl)phosphine hydrochloride solution (TCEP) were purchased from Sigma-Aldrich (St. Louis, MO) at the highest level of purity possible. […] DNA strands were annealed by heating to 95° C. for 5 minutes followed by slow cooling to room temperature. Compounds in 100% DMSO (0.1 μl) were spotted into a 384-well white polystyrene Optiplate-384 (Perkin Elmer; Waltham, MA) assay plate using a LabCyte Echo 550 (Agilent; Santa Clara, CA). DMSO (0.1 μl) was added to columns 12, rows A-H and column 24, rows I-P for the maximum signal control. […] Compounds/DMSO were preincubated for 15 minutes at 25° C. with 5 μl 2×WRN (BV08), prepared as described below, in assay buffer containing 20 mM Bicine (pH=7.5), 1 mM MgCl2, 10 mM KCl, 0.1% Pluronic F-127, 0.005% BSG, 1 mM TCEP. The reaction was initiated by the addition of 5 μl 2× substrate mixture in assay buffer and incubated for 60 minutes at 25° C. The final concentrations of the assay components were 0.15 nM WRN, 5 μM ATP, and 0.1 nM DNA duplex. The final DMSO concentration was 1% and the reference compound concentration (NSC-617145) used for the minimal signal control was 20 μM. The reaction was stopped by the addition of the ADP-Glo Kit components (Promega; Madison, WI) as directed and the relative luminescence units (RLU) were read on an Envision 2104 (Perkin Elmer; Waltham, MA). % inhibition calculation:
[formula] • Where RLU=relative luminescence units, sample=signal in sample well, and MIN and MAX are the respective minimum and maximum signal controls.
[formula] • Where top and bottom are normally allowed to float but may be fixed at 100 or 0 respectively in a 3-parameter fit. Y is the % inhibition and X is the compound concentration.
Molecular Biology and virus production. […] The baculovirus from the expression plasmid WRN—BV08 was generated from transfection and amplification following the manufacturer's instructions.
Sf9 cells grown in SF900II media were infected with 1:200 WRN—BV08 P2 virus and incubated for protein expression for 72 h at 27° C. The WRN protein was purified using the following protocol. The cell pellets were thawed and resuspended in buffer A (50 mM Tris, pH 7.5, 500 mM NaCl, 1 mM TCEP, 10% Glycerol) supplemented with 0.5% CHAPS, 1 mM PMSF, 1 μg/ml Leupeptin, 1 μg/ml Pepstatin, and the Pierce Universal Nuclease and cocktail tablet. Cleared lysates were loaded onto a Ni Sepharose™ excel column and washed with buffer A and bound protein was eluted with buffer A supplemented with 300 mM imidazole. The eluted protein was dialyzed against buffer A and digested by His-tagged TEV (1:5 ratio) overnight at 4° C. ZnCl2 was added into the sample at final 15 μM before loading onto a second Ni Sepharose™ excel column. Untagged WRN protein was eluted from the column with buffer A supplemented with 20 mM imidazole, dialyzed overnight into buffer B (50 mM Tris, pH 7.5, 1 mM TCEP, 10% Glycerol) supplemented with 150 mM NaCl and loaded onto a Heparin column. Proteins were eluted with a step gradient of buffer B supplemented with 150 mM, 200 mM, 300 mM and 500 mM NaCl. WRN containing fractions were pooled and concentrated prior to loading on to size exclusion chromatography using a HiLoad 16/600 Superdex™ 200 pg column (GE Healthcare) in buffer C (20 mM HTEPES, pH 7.5, 250 mM NaCl, 0.25 mM TCEP, […]).

Sequence of WRN (BV08), human Werner helicase (Uniprot Q14191, amino acids 517-1235 with L1074F point mutation) (Q14191 other isoform, or with tags, fused parts or gaps L1074F (already in the parent)): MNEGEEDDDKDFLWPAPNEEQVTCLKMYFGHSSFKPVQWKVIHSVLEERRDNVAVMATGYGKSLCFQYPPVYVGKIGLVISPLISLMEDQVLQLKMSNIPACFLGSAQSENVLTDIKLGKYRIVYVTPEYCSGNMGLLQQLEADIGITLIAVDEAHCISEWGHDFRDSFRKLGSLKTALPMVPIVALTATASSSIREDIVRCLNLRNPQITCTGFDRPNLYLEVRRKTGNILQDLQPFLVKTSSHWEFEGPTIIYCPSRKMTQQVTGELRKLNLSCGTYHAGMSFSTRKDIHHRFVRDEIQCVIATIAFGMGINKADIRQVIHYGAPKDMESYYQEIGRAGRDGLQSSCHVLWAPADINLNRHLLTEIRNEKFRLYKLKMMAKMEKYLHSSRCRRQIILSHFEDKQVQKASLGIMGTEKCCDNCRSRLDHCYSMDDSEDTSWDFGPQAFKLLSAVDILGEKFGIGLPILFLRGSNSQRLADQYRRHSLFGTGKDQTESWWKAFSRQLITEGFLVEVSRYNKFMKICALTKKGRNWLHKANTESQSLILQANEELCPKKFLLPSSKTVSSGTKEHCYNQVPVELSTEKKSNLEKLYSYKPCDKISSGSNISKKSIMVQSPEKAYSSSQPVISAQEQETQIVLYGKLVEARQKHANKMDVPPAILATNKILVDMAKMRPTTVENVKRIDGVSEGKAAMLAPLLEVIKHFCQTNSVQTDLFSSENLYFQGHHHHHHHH

| Compound | EC50 ([1]; Homo sapiens, HCT-116, 24 h) [nM] | IC50 [2] [nM] | EC50 [1] [nM] |
| --- | --- | --- | --- |
| CCc1c(N2CCN(C(=O)c3ncnc(C)c3O)[C@H]3CCC32)c(=O)c2nc(OC)c(C)nc2n1CC(=O)Nc1ccc(C(F)(F)F)cc1Cl (mixture of isomers) [I-16, rac-N-(2-chloro-4-(trifluoromethyl)phenyl)-2-(6-ethyl-7-(5-(5-hydroxy-6-methylpyrimidine-4-carbonyl)-2,5-diazabicyclo[4.2.0]octan-2-yl)-2-methoxy-3-methyl-8-oxopyrido[2,3-b]pyrazin-5(8H)-yl)acetamide] | 500 to 2000 | 5 to 50 | – |
| CCc1c(N2CCN(C(=O)c3ncnc(C)c3O)[C@H]3CC[C@@H]32)c(=O)c2nc(NC)cnc2n1CC(=O)Nc1ccc(C(F)(F)F)cc1Cl (racemic) [I-97, rac-N-(2-chloro-4-(trifluoromethyl)phenyl)-2-(6-ethyl-7-(-5-(5-hydroxy-6-methylpyrimidine-4-carbonyl)-2,5-diazabicyclo[4.2.0]octan-2-yl)-2-(methylamino)-8-oxopyrido[2,3-b]pyrazin-5(8H)-yl)acetamide] | < 500 | 5 to 50 | – |
| CCc1c(N2CCN(C(=O)c3ncnc(C)c3O)[C@@H]3CC[C@H]32)c(=O)c2nc(C=C3CCC3)cnc2n1CC(=O)Nc1ccc(C(F)(F)F)cc1Cl (racemic) [I-135] | < 500 | 5 to 50 | – |
| CCO/C=C/c1cnc2c(n1)c(=O)c(N1CCN(C(=O)c3ncnc(C)c3O)[C@H]3CC[C@@H]31)c(CC)n2CC(=O)Nc1ccc(C(F)(F)F)cc1Cl (racemic) [I-136, rac-N-[2-chloro-4-(trifluoromethyl)phenyl]-2-{2-[(1E)-2-ethoxyethenyl]-6-ethyl-7-[-5-(5-hydroxy-6-methylpyrimidine-4-carbonyl)-2,5-diazabicyclo[4.2.0]octan-2-yl]-8-oxo-5H,8H-pyrido[2,3-b]pyrazin-5-yl}acetamide] | < 500 | 5 to 50 | – |
| CCc1c(N2CCN(C(=O)c3c(O)ccnc3OC)[C@@H]3CC[C@H]32)c(=O)c2nc(N(C)C)cnc2n1CC(=O)Nc1ccc(C(F)(F)F)cc1Cl (racemic) [I-139, rac-N-[2-chloro-4-(trifluoromethyl)phenyl]-2-[2-(dimethylamino)-6-ethyl-7-[-5-(4-hydroxy-2-methoxypyridine-3-carbonyl)-2,5-diazabicyclo[4.2.0]octan-2-yl]-8-oxo-5H,8H-pyrido[2,3-b]pyrazin-5-yl]acetamide] | 500 to 2000 | 5 to 50 | – |
| CCc1c(N2CCN(C(=O)c3ncnc(C)c3O)CC2)c(=O)c2nc(N(C)[C@H]3CC[C@@H]3OC)cnc2n1CC(=O)Nc1ccc(C(F)(F)F)cc1Cl (racemic) [I-143, rac-N-(2-chloro-4-(trifluoromethyl)phenyl)-2-(6-ethyl-7-(4-(5-hydroxy-6-methylpyrimidine-4-carbonyl)piperazin-1-yl)-2-((2-methoxycyclobutyl)(methyl)amino)-8-oxopyrido[2,3-b]pyrazin-5(8H)-yl)acetamide] | 2000 to 5000 | 5 to 50 | – |
| CCc1c(N2CCN(C(=O)c3ncnc(C)c3O)CC2)c(=O)c2nc(N(C)[C@H]3CC[C@H]3OC)cnc2n1CC(=O)Nc1ccc(C(F)(F)F)cc1Cl (racemic) [I-146, rac-N-(2-chloro-4-(trifluoromethyl)phenyl)-2-(6-ethyl-7-(4-(5-hydroxy-6-methylpyrimidine-4-carbonyl)piperazin-1-yl)-2-((2-methoxycyclobutyl)(methyl)amino)-8-oxopyrido[2,3-b]pyrazin-5(8H)-yl)acetamide] | 2000 to 5000 | 5 to 50 | – |
| CCc1c(N2CCN(C(=O)c3ncnc(C)c3O)CC2)c(=O)c2nc(N3CC[C@@H]4CC[C@@H]43)cnc2n1CC(=O)Nc1ccc(C(F)(F)F)cc1Cl (racemic) [I-230, rac-2-(2-(2-azabicyclo[3.2.0]heptan-2-yl)-6-ethyl-7-(4-(5-hydroxy-6-methylpyrimidine-4-carbonyl)piperazin-1-yl)-8-oxopyrido[2,3-b]pyrazin-5(8H)-yl)-N-(2-chloro-4-(trifluoromethyl)phenyl)acetamide] | < 500 | 5 to 50 | – |
| CCc1c(N2CCN(C(=O)c3ncnc(C)c3O)[C@H]3CC(F)(F)C[C@@H]32)c(=O)c2nc(N(C)C)cnc2n1CC(=O)Nc1ccc(C(F)(F)F)cc1Cl (racemic) [I-291, rac-N-(2-chloro-4-(trifluoromethyl)phenyl)-2-(7-(6,6-difluoro-4-(5-hydroxy-6-methylpyrimidine-4-carbonyl)octahydro-1H-cyclopenta[b]pyrazin-1-yl)-2-(dimethylamino)-6-ethyl-8-oxopyrido[2,3-b]pyrazin-5(8H)-yl)acetamide] | 2000 to 5000 | 5 to 50 | – |
| CCc1c(N2CCN(C(=O)c3ncnc(C)c3O)[C@H]3CC[C@@H]32)c(=O)c2nc(N3CC[C@H]4C[C@H]43)cnc2n1CC(=O)Nc1ccc(C(F)(F)F)cc1F (relative stereo) [I-122, 2-(2-((1R*,5S*)-2-azabicyclo[3.1.0]hexan-2-yl)-6-ethyl-7-((1S,6S)-5-(5-hydroxy-6-methylpyrimidine-4-carbonyl)-2,5-diazabicyclo[4.2.0]octan-2-yl)-8-oxopyrido[2,3-b]pyrazin-5(8H)-yl)-N-(2-fluoro-4-(trifluoromethyl)phenyl)acetamide] | < 500 | ≤ 5 | – |
| CCc1c(N2CCN(C(=O)c3ncnc(C)c3O)[C@@H](COC)C2)c(=O)c2nc(N(C)C)cnc2n1CC(=O)Nc1ccc(C(F)(F)F)cc1Cl (single isomer, unassigned) [I-96, N-(2-chloro-4-(trifluoromethyl)phenyl)-2-(2-(dimethylamino)-6-ethyl-7-(4-(5-hydroxy-6-methylpyrimidine-4-carbonyl)-3-(methoxymethyl)piperazin-1-yl)-8-oxopyrido[2,3-b]pyrazin-5(8H)-yl)acetamide] | – | 5 to 50 | > 5000 |
